Measured values reported in patent publication US11639530B2, “CD133 related to anticancer agent resistance in colon cancer and use thereof” (KOREA UNIVERSITY RESEARCH AND BUSINESS FOUNDATION, priority 2019, dated 2023).

Tests used:
[1] = system: liver cancer cell line; experiment: Microscopic analysis of microvesicle and TNT formation (WGA-488/DAPI staining, confocal); format: cell-based
Protocol: The relationship between EGF and microvesicle and TNT formation was investigated by microscopic analysis. Specifically, after 14 hours of EGF treatment, cells were fixed with 4% paraformaldeyde and treated with WGA-488 and DAPI for 10 minutes to stain the cell membrane and nucleus. Fluorescence intensity was measured using an LSM700 Meta confocal microscope.

[2] = system: CD133 expression in a liver cancer cell line; experiment: CD133 expression (Western blotting) and CD133 ORF promoter luciferase activity after EGF treatment; format: cell-based
Protocol: After treatment with an inhibitor against an EGF downstream signaling molecule, CD133 expression was investigated. Specifically, for transfection and Western blotting, a specific gene (plasmid vector or siRNA) was expressed in cells using a transfection reagent. For general plasmid vector transfection, 24 hours after transfection, cells were harvested, and for siRNA transfection, 48 hours after transfection, cells were harvested. For Western blotting, the harvested cells were lysed in RIPA buffer, and centrifuged at 12,000 g for 20 minutes at 4° C., followed by collecting a supernatant. The collected supernatant was subjected to SDS-PAGE gel electrophoresis, and transferred onto a nitrocellulose membrane, followed by detecting the expression of a desired protein using suitable antibodies. As a result, it was observed that NF-κB is involved in EGF-induced CD133 expression (FIG. 1B). […] Cells were simultaneously transfected with the luciferase vector and a Renilla plasmid vector for quantification. Twenty-four hours after transfection, the cells were treated with EGF for 14 hours, lysed with lysis buffer and centrifuged to obtain a supernatant, and then luciferase activity was measured using the Luminometer 20/20 (FIG. 1D).

In the case of EGF: epithelial growth factor (EGF), the “microvesicle and TNT formation between cells” value [1] is reported as “microvesicle and TNT formation increases between cells” and the CD133 expression regulation [2] is reported as “activates NF-κB and regulates CD133 expression at the transcription level”.
